Test results published in patent US9125388B2, “Biological control” (Isis Innovation Limited, priority 1999, dated 2015).

What was measured:
[1] = test system: (Male) Sxlp^e tTa^(A) × tRe lacZ^(III) (Female); experiment: Reporter crosses at 25° C., embryos stained for lacZ
[2] = test system: Stwl tTa^(A, B, C) × tRe Ras64B^V12(B, C); experiment: Single chromosome crosses at 25° C., adult progeny by sex; format: in vivo, Drosophila melanogaster
Experimental: (§1) In “single chromosome crosses” at 25° C., ten to fifteen virgin females homozygous for the tTA construct and five to ten young males homozygous for the tRe construct were placed on food containing or lacking a tetracycline supplement.

[3] = test system: Stwl tTa^(A, B, C) × tRe Msl-1^Mpu(A, B); experiment: as above; format: in vivo, Drosophila melanogaster
Experimental: as §1

[4] = test system: Sxlpe tTa^(A, B, C, F) × tRe Ras64B^V12(B, C); experiment: as above; format: in vivo, Drosophila melanogaster
Experimental: as §1

[5] = test system: Stwl tTa^(A, B, C) × tRe Msl-2^Nopu(B, C, D); experiment: as above; format: in vivo, Drosophila melanogaster
Experimental: as §1

[6] = test system: Yp3 tTa^(A) × tRe Ras64B^V12(B, C,); experiment: as above; format: in vivo, Drosophila melanogaster
Experimental: as §1

[7] = test system: Yp3 tTa^(A) × tRe Msl-2^Nopu(A, B,); experiment: as above; format: in vivo, Drosophila melanogaster
Experimental: as §1

[8] = test system: Actin5C tTa^(B, C, E) × tRe Msl-2^Nopu (B, C, D); experiment: as above; format: in vivo, Drosophila melanogaster
Experimental: as §1

[9] = test system: (Male) Sxlp^e tTa^(A) tRe lacZ^(I) × C(1)DX (Female); experiment: Reporter crosses at 25° C., embryos stained for lacZ; format: in vivo, Drosophila melanogaster
Excerpt: (§2) As with “single chromosome crosses”, ten to fifteen virgin females homozygous for the tTA construct and five to ten young males homozygous for the tRe construct were placed on food containing or lacking a tetracycline supplement.
C(1)DX is a compound X chromosome; effectively two X chromosomes joined together. The X chromosome from males crossed to C(1)DX females is therefore inherited by the sons, rather than the daughters.

[10] = test system: (Female) Sxlp^e tTa^(A) × tRe lacZ^(III) (Male); experiment: as above; format: in vivo, Drosophila melanogaster
Excerpt: as §2

[11] = test system: Hsp26 tTa^(A) × tRe Msl-2^Nopu(A, B,); experiment: Single chromosome crosses at 25° C., adult progeny by sex

CN(C)[C@@H]1C(O)=C(C(N)=O)C(=O)[C@@]2(O)C(O)=C3C(=O)c4c(O)cccc4[C@@](C)(O)[C@H]3C[C@@H]12 [Tetracycline, tetracycline]
LacZ negative Total ([1]; Tetracycline 0.1 μg/ml in food): 518 | LacZ positive Total ([1]; Tetracycline 0.1 μg/ml in food): 0 | LacZ negative Total ([1]; Tetracycline 1 μg/ml in food): 707 | LacZ positive Total ([1]; Tetracycline 1 μg/ml in food): 0 | LacZ negative Total ([1]; Tetracycline 5 μg/ml in food): 702 | LacZ positive Total ([1]; Tetracycline 5 μg/ml in food): 0 | Female progeny Total ([2]; Tetracycline 0.1 μg/ml in food): 317 | Male progeny Total ([2]; Tetracycline 0.1 μg/ml in food): 315 | Female progeny Total ([2]; Tetracycline 1 μg/ml in food): 307 | Male progeny Total ([2]; Tetracycline 1 μg/ml in food): 328 | Female progeny Total ([2]; Tetracycline 5 μg/ml in food): 271 | Male progeny Total ([2]; Tetracycline 5 μg/ml in food): 335 | Female progeny Total ([3]; Tetracycline 0.1 μg/ml in food): 211 | Male progeny Total ([3]; Tetracycline 0.1 μg/ml in food): 336 | Female progeny Total ([3]; Tetracycline 1 μg/ml in food): 236 | Male progeny Total ([3]; Tetracycline 1 μg/ml in food): 257 | Female progeny Total ([3]; Tetracycline 5 μg/ml in food): 223 | Male progeny Total ([3]; Tetracycline 5 μg/ml in food): 291 | Female progeny Total ([4]; Tetracycline 0.1 μg/ml in food): 379 | Male progeny Total ([4]; Tetracycline 0.1 μg/ml in food): 434 | Female progeny Total ([4]; Tetracycline 1 μg/ml in food): 386 | Male progeny Total ([4]; Tetracycline 1 μg/ml in food): 389 | Female progeny Total ([4]; Tetracycline 5 μg/ml in food): 383 | Male progeny Total ([4]; Tetracycline 5 μg/ml in food): 375 | Female progeny Total ([5]; Tetracycline 0.1 μg/ml in food): 436 | Male progeny Total ([5]; Tetracycline 0.1 μg/ml in food): 491 | Female progeny Total ([5]; Tetracycline 1 μg/ml in food): 439 | Male progeny Total ([5]; Tetracycline 1 μg/ml in food): 490 | Female progeny Total ([5]; Tetracycline 5 μg/ml in food): 434 | Male progeny Total ([5]; Tetracycline 5 μg/ml in food): 481 | Female progeny Total ([6]; Tetracycline 0.1 μg/ml in food): 322 | Male progeny Total ([6]; Tetracycline 0.1 μg/ml in food): 352 | Female progeny Total ([6]; Tetracycline 1 μg/ml in food): 342 | Male progeny Total ([6]; Tetracycline 1 μg/ml in food): 376 | Female progeny Total ([6]; Tetracycline 5 μg/ml in food): 316 | Male progeny Total ([6]; Tetracycline 5 μg/ml in food): 354 | Female progeny Total ([7]; Tetracycline 0.1 μg/ml in food): 268 | Male progeny Total ([7]; Tetracycline 0.1 μg/ml in food): 248 | Female progeny Total ([7]; Tetracycline 1 μg/ml in food): 324 | Male progeny Total ([7]; Tetracycline 1 μg/ml in food): 362 | Female progeny Total ([7]; Tetracycline 5 μg/ml in food): 349 | Male progeny Total ([7]; Tetracycline 5 μg/ml in food): 386 | Female progeny Total ([8]; Tetracycline 0.1 μg/ml in food): 548 | Male progeny Total ([8]; Tetracycline 0.1 μg/ml in food): 637 | Female progeny Total ([8]; Tetracycline 1 μg/ml in food): 590 | Male progeny Total ([8]; Tetracycline 1 μg/ml in food): 549 | Female progeny Total ([8]; Tetracycline 5 μg/ml in food): 615 | Male progeny Total ([8]; Tetracycline 5 μg/ml in food): 522 | LacZ negative Total ([9]; Tetracycline 0.1 μg/ml in food): 708 | LacZ positive Total ([9]; Tetracycline 0.1 μg/ml in food): 0 | LacZ negative Total ([9]; Tetracycline 1 μg/ml in food): 737 | LacZ positive Total ([9]; Tetracycline 1 μg/ml in food): 0 | LacZ negative Total ([9]; Tetracycline 5 μg/ml in food): 683 | LacZ positive Total ([9]; Tetracycline 5 μg/ml in food): 0 | LacZ negative Total ([10]; Tetracycline 0.1 μg/ml in food): 709 | LacZ positive Total ([10]; Tetracycline 0.1 μg/ml in food): 0 | LacZ negative Total ([10]; Tetracycline 1 μg/ml in food): 739 | LacZ positive Total ([10]; Tetracycline 1 μg/ml in food): 0 | LacZ negative Total ([10]; Tetracycline 5 μg/ml in food): 651 | LacZ positive Total ([10]; Tetracycline 5 μg/ml in food): 0 | Female progeny Total ([11]; Tetracycline 0.1 μg/ml in food): 159 | Male progeny Total ([11]; Tetracycline 0.1 μg/ml in food): 159 | Female progeny Total ([11]; Tetracycline 1 μg/ml in food): 135 | Male progeny Total ([11]; Tetracycline 1 μg/ml in food): 122 | Female progeny Total ([11]; Tetracycline 5 μg/ml in food): 124 | Male progeny Total ([11]; Tetracycline 5 μg/ml in food): 120
